Measured values: ChEMBL document CHEMBL1909046, “DrugMatrix in vitro pharmacology data”

Experiments:
[1] = target: 5-hydroxytryptamine receptor 4 (Cavia porcellus, UniProt O70528); format: cell membranes, Dunkin-Hartley, Striatum, Membrane; further: in other assays of this panel Not Active means under 50% inhibition at 10 µM
Cytochrome P450 2D6 = Cytochrome P450 2D6 (Homo sapiens, UniProt P10635); conditions: bti-tn-5b1-4; further: in other assays of this panel Not Active means under 50% inhibition at 10 µM
Melanocortin receptor 5 = Melanocortin receptor 5 (Homo sapiens, UniProt P33032); format: cell membranes, HEK293, Membrane; conditions: hek293; further: in other assays of this panel Not Active means under 50% inhibition at 10 µM
[2] = target: Mitogen-activated protein kinase 1 (Homo sapiens, UniProt P28482); test: DRUGMATRIX: Protein Serine/Threonine Kinase, ERK2 enzyme inhibition (substrate: Myelin Basic Protein); design: species or system Escherichia coli; conditions: Not Active = under 50% inhibition at 10 µM
Cannabinoid receptor 1 = Cannabinoid receptor 1 (Homo sapiens, UniProt P21554); format: cell membranes, Chem-1, Membrane; conditions: chem-1; further: in other assays of this panel Not Active means under 50% inhibition at 10 µM
[3] = DRUGMATRIX: beta-Lactamase enzyme inhibition (substrate: Nitrocefin); design: species or system Bacillus cereus; conditions: Not Active = under 50% inhibition at 10 µM
Endothelin-1 receptor = target: T1, Endothelin-1 receptor (Homo sapiens, UniProt P25101); format: cell membranes, Membrane; conditions: cho-k1; further: in other assays of this panel Not Active means under 50% inhibition at 10 µM
T1 sequence (P25101 whole entry): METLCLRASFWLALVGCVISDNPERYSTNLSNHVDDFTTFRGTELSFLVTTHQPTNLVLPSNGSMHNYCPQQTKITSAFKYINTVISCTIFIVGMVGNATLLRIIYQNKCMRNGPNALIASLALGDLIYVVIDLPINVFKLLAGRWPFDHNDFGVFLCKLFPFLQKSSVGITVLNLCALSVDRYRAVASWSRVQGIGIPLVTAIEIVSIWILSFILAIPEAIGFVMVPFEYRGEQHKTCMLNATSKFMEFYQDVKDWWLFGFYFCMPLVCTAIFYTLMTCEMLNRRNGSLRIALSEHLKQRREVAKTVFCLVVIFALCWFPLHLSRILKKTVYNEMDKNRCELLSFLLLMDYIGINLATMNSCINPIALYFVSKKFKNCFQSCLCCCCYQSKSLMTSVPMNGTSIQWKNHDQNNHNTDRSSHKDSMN

[4] = target: T2, 5-hydroxytryptamine receptor 1A (Rattus norvegicus, UniProt P19327); format: cell membranes, CHO-K1, Membrane; conditions: cho-k1; further: in other assays of this panel Not Active means under 50% inhibition at 10 µM
T2 sequence (P19327 whole entry): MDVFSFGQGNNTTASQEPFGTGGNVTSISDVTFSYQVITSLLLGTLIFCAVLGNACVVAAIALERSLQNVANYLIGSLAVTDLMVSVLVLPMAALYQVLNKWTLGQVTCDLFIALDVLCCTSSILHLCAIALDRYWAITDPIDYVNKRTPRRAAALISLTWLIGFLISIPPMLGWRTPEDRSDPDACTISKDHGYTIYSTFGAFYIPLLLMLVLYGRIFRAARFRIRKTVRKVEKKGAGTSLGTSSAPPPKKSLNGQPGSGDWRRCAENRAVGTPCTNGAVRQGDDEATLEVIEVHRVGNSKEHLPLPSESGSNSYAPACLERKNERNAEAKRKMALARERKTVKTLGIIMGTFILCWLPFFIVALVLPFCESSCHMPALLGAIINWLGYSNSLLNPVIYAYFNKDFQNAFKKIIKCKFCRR

Sequence of Cytochrome P450 2D6 (P10635 whole entry): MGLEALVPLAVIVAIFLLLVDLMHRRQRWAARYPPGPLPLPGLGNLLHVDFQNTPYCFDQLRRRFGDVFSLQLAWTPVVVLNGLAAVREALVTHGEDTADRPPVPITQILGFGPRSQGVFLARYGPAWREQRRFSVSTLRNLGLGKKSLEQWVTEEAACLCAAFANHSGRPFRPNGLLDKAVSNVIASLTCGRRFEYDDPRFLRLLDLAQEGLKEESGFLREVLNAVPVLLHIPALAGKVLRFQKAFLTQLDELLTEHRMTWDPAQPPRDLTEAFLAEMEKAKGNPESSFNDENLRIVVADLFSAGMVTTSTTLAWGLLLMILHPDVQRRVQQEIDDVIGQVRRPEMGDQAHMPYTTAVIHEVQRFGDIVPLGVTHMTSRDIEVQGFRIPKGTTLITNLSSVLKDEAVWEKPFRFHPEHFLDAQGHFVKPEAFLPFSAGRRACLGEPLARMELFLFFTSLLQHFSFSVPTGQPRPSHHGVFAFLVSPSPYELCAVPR
Sequence of Melanocortin receptor 5 (P33032 whole entry): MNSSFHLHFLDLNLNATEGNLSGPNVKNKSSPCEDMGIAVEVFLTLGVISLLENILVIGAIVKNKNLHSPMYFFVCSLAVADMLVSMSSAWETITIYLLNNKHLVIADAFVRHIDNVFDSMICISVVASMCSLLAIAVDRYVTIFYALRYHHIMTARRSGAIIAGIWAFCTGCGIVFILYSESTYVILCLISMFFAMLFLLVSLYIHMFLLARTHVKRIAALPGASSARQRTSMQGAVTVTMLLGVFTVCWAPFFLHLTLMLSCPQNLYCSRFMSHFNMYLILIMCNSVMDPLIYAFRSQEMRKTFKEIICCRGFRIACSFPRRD
Sequence of 5-hydroxytryptamine receptor 4 (O70528 whole entry): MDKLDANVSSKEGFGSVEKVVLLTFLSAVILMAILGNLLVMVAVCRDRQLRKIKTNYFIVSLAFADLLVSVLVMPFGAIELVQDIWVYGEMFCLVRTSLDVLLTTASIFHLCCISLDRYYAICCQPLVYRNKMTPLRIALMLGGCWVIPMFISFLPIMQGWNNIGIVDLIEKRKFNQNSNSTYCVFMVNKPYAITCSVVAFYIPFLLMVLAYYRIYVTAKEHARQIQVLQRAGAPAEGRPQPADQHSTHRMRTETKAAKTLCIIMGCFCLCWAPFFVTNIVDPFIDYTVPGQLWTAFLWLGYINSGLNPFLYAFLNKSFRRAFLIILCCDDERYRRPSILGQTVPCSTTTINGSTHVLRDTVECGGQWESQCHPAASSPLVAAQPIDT
Sequence of Mitogen-activated protein kinase 1 (P28482 whole entry): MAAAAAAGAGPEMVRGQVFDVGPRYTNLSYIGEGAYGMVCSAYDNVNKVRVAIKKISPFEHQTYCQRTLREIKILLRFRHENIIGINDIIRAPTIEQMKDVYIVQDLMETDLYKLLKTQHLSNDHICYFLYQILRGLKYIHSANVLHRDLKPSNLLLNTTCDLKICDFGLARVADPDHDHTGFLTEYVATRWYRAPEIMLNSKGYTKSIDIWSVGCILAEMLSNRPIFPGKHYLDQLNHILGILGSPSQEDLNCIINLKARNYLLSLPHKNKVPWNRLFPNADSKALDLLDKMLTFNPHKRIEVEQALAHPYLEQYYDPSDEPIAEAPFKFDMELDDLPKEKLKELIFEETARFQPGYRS
Sequence of Cannabinoid receptor 1 (P21554 whole entry): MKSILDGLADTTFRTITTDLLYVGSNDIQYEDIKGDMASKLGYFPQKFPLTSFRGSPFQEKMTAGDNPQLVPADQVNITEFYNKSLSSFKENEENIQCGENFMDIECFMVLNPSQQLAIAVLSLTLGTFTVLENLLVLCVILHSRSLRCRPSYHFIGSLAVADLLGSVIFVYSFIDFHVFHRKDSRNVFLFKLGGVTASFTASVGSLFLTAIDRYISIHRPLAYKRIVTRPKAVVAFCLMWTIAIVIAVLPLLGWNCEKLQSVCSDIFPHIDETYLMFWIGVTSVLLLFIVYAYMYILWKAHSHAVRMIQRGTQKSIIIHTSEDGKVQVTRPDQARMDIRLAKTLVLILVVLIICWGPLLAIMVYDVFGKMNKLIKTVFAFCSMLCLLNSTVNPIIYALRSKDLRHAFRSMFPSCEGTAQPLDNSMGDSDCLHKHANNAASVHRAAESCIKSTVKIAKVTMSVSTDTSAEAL

Cc1cccc(C)c1NC(=O)C1CCCCN1C (stereo not given) [MEPIVACAINE]
Not Active: IC50 [1] | IC50 (Cytochrome P450 2D6) | Ki (Cytochrome P450 2D6) | IC50 (Melanocortin receptor 5) | IC50 [2] | IC50 (Cannabinoid receptor 1) | IC50 [3] | Ki [3] | IC50 (Endothelin-1 receptor) | IC50 [4]

CN(C)C(=N)NC(=N)N [METFORMIN]
Not Active: IC50 [1] | IC50 (Cytochrome P450 2D6) | Ki (Cytochrome P450 2D6) | IC50 (Melanocortin receptor 5) | IC50 [2] | IC50 (Cannabinoid receptor 1) | IC50 [3] | Ki [3] | IC50 (Endothelin-1 receptor) | IC50 [4]

CC(C)(C)NCC(O)COc1cccc2c1CC(O)C(O)C2 (stereo not given) [NADOLOL]
Not Active: IC50 [1] | IC50 (Cytochrome P450 2D6) | Ki (Cytochrome P450 2D6) | IC50 (Melanocortin receptor 5) | IC50 [2] | IC50 (Cannabinoid receptor 1) | IC50 [3] | Ki [3] | IC50 (Endothelin-1 receptor) | IC50 [4]

C[C@]12CC[C@H]3[C@@H](CCC4=CC(=O)CC[C@@H]43)[C@@H]1CC[C@@H]2O [NANDROLONE]
Not Active: IC50 [1] | IC50 (Cytochrome P450 2D6) | Ki (Cytochrome P450 2D6) | IC50 (Melanocortin receptor 5) | IC50 [2] | IC50 (Cannabinoid receptor 1) | IC50 [3] | Ki [3] | IC50 (Endothelin-1 receptor) | IC50 [4]

CN(C)C(=O)Oc1cccc([N+](C)(C)C)c1.[Br-] [NEOSTIGMINE BROMIDE]
Not Active: IC50 [1] | IC50 (Cytochrome P450 2D6) | Ki (Cytochrome P450 2D6) | IC50 (Melanocortin receptor 5) | IC50 [2] | IC50 (Cannabinoid receptor 1) | IC50 [3] | Ki [3] | IC50 (Endothelin-1 receptor) | IC50 [4]

NC(=O)c1cccnc1 [NIACINAMIDE]
Not Active: IC50 [1] | IC50 (Cytochrome P450 2D6) | Ki (Cytochrome P450 2D6) | IC50 (Melanocortin receptor 5) | IC50 [2] | IC50 (Cannabinoid receptor 1) | IC50 [3] | Ki [3] | IC50 (Endothelin-1 receptor) | IC50 [4]

CS(=O)(=O)Nc1ccc([N+](=O)[O-])cc1Oc1ccccc1 [NIMESULIDE]
Not Active: IC50 [1] | IC50 (Cytochrome P450 2D6) | Ki (Cytochrome P450 2D6) | IC50 (Melanocortin receptor 5) | IC50 [2] | IC50 (Cannabinoid receptor 1) | IC50 [3] | Ki [3] | IC50 (Endothelin-1 receptor) | IC50 [4]

CN1C(=O)CN=C(c2ccccc2)c2cc([N+](=O)[O-])ccc21 [NIMETAZEPAM]
Not Active: IC50 [1] | IC50 (Cytochrome P450 2D6) | Ki (Cytochrome P450 2D6) | IC50 (Melanocortin receptor 5) | IC50 [2] | IC50 (Cannabinoid receptor 1) | IC50 [3] | Ki [3] | IC50 (Endothelin-1 receptor) | IC50 [4]

COc1ccc2c(c1OC)C(=O)O[C@@H]2[C@H]1c2c(cc3c(c2OC)OCO3)CCN1C [NOSCAPINE]
Not Active: IC50 [1] | IC50 (Cytochrome P450 2D6) | Ki (Cytochrome P450 2D6) | IC50 (Melanocortin receptor 5) | IC50 [2] | IC50 (Cannabinoid receptor 1) | IC50 [3] | Ki [3] | IC50 (Endothelin-1 receptor) | IC50 [4]

C[C@@H]1O[C@@H](O[C@H]2C[C@@H](O)[C@]3(CO)[C@H]4[C@H](O)C[C@]5(C)[C@@H](C6=CC(=O)OC6)CC[C@]5(O)[C@@H]4CC[C@]3(O)C2)[C@H](O)[C@H](O)[C@H]1O [OUABAIN]
Not Active: IC50 [1] | IC50 (Cytochrome P450 2D6) | Ki (Cytochrome P450 2D6) | IC50 (Melanocortin receptor 5) | IC50 [2] | IC50 (Cannabinoid receptor 1) | IC50 [3] | Ki [3] | IC50 (Endothelin-1 receptor) | IC50 [4]

NC(=O)N1c2ccccc2CC(=O)c2ccccc21 [OXCARBAZEPINE]
Not Active: IC50 [1] | IC50 (Cytochrome P450 2D6) | Ki (Cytochrome P450 2D6) | IC50 (Melanocortin receptor 5) | IC50 [2] | IC50 (Cannabinoid receptor 1) | IC50 [3] | Ki [3] | IC50 (Endothelin-1 receptor) | IC50 [4]

COc1ccnc(C[S+]([O-])c2nc3ccc(OC(F)F)cc3[nH]2)c1OC (stereo not given) [PANTOPRAZOLE]
Not Active: IC50 [1] | IC50 (Cytochrome P450 2D6) | Ki (Cytochrome P450 2D6) | IC50 (Melanocortin receptor 5) | IC50 [2] | IC50 (Cannabinoid receptor 1) | IC50 [3] | Ki [3] | IC50 (Endothelin-1 receptor) | IC50 [4]
